Each structure is given as a SMILES string.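 These data come from cells grown in 96-well plates and exposed to compound for 48 hours at five concentrations. Here, GI50 denotes the concentration required for 50% inhibition of growth. At the TGI there is no net growth.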

Among the test systems are SK-MEL-28 melanoma; HCT-15 colon; SR leukemia; KM12 colon; SK-OV-3 ovarian; SN12C renal; A549 NSCLC; LOX IMVI melanoma; SNB-19 CNS; HOP-62 NSCLC.
Holding throughout (experiment): inhibition of tumour cell growth, NCI panel, 48 h

On to `CCN(CC)c1c(-c2ccccc2)n[nH]c1C(=O)OC`, for which the GI50 was 22.2 µM with SK-MEL-28 melanoma; 19 µM with HCT-15 colon; 17.2 µM with SR leukemia; 17.8 µM in the assay on KM12 colon; 17.4 µM with SK-OV-3 ovarian; 24.4 µM with SN12C renal. Besides, the GI50 in the assay on A549 NSCLC is 31.6 µM; in the assay with LOX IMVI melanoma, 35.3 µM; in the assay with SNB-19 CNS it was 46.4 µM; in the assay on HOP-62 NSCLC it was 44.6 µM. In addition, the TGI in the assay with SK-MEL-28 melanoma is more than 100 µM; with HCT-15 colon, 40.9 µM; in the assay with SR leukemia, 80.1 µM; in the assay on KM12 colon it was 47 µM; in the assay on SK-OV-3 ovarian it was 50.5 µM; in the assay with SN12C renal, 40.3 µM. For the same compound, the TGI with A549 NSCLC, with LOX IMVI melanoma, in the assay with SNB-19 CNS and in the assay with HOP-62 NSCLC was more than 100 µM throughout.
For the compound `N#Cc1cnc2cc(OC[C@@H](O)CO)c(NC(=O)C3CCCC3)cc2c1Nc1ccc(OCc2cccc(F)c2)c(Cl)c1`, the GI50 in the assay with SK-MEL-28 melanoma is 0.669 µM; in the assay on HCT-15 colon, 2.45 µM; in the assay with SR leukemia, 1.24 µM; with KM12 colon, 3.84 µM; with SK-OV-3 ovarian, 3.23 µM; with SN12C renal, 1.88 µM. The GI50 is 6.74 µM in the assay with A549 NSCLC, 1.01 µM in the assay with LOX IMVI melanoma, 3.69 µM with SNB-19 CNS and 1.03 µM in the assay on HOP-62 NSCLC. Besides, the TGI was 1.42 µM in the assay on SK-MEL-28 melanoma; more than 50 µM in the assay on HCT-15 colon; more than 50 µM in the assay with SR leukemia; 14.2 µM with KM12 colon; 11.5 µM in the assay on SK-OV-3 ovarian; 28.6 µM in the assay with SN12C renal. The TGI in the assay on A549 NSCLC is 14.9 µM; with LOX IMVI melanoma, 2.28 µM; in the assay on SNB-19 CNS, more than 50 µM; in the assay with HOP-62 NSCLC it was 2.62 µM.
Consider `CN(C)CCC(/C=C/c1ccccc1)=N\Nc1ccc(Cl)c(Cl)c1`, for which the TGI in the assay on SK-MEL-28 melanoma came to 22.6 µM; in the assay on HCT-15 colon, 12.9 µM; in the assay with SR leukemia, 5.34 µM; in the assay on KM12 colon it was 4.41 µM; in the assay on SK-OV-3 ovarian, 15.5 µM; with SN12C renal, 13.7 µM. Besides, the TGI in the assay with A549 NSCLC turned out to be 10.6 µM; in the assay on LOX IMVI melanoma, 3.71 µM; in the assay on SNB-19 CNS, 20.2 µM; in the assay with HOP-62 NSCLC it was 13.3 µM.
For the compound `COc1cccc(-c2nn(-c3ccccc3)cc2-c2ccnc(NCCCNC(=O)c3cccc(C(F)(F)F)c3)c2)c1`, the GI50 was 5.45 µM in the assay on SK-MEL-28 melanoma; 3.4 µM in the assay with HCT-15 colon; 2.1 µM in the assay with SR leukemia; 3.64 µM in the assay with KM12 colon; 7.04 µM with SK-OV-3 ovarian; 6.06 µM in the assay with SN12C renal. Further, the GI50 in the assay on A549 NSCLC was 4.07 µM; in the assay on LOX IMVI melanoma, 4.55 µM; in the assay with SNB-19 CNS, 6.03 µM; in the assay with HOP-62 NSCLC it was 10.3 µM. Also, the TGI in the assay with SK-MEL-28 melanoma came out at 25.3 µM; in the assay on HCT-15 colon it was 15.6 µM; with SR leukemia, 8.02 µM; in the assay on KM12 colon it was 19.8 µM; with SK-OV-3 ovarian, 29.2 µM; in the assay with SN12C renal, 38.5 µM. The TGI worked out at 16.2 µM in the assay on A549 NSCLC, 18.3 µM in the assay with LOX IMVI melanoma, 31.2 µM in the assay with SNB-19 CNS and 30.6 µM with HOP-62 NSCLC.
Turning to `CC(C)(C)c1cc(C(=O)Nc2ccc(C(=O)NCCN)cc2)cc(C(C)(C)C)c1`, the GI50 with SK-MEL-28 melanoma was 1.79 µM; in the assay with HCT-15 colon it was 4.75 µM; with SR leukemia it was 1.47 µM; in the assay with KM12 colon it was 2.22 µM; in the assay on SK-OV-3 ovarian, 5.31 µM; in the assay with SN12C renal, 1.98 µM. Also, the GI50 with A549 NSCLC was 3.15 µM; in the assay with LOX IMVI melanoma, 1.65 µM; in the assay on SNB-19 CNS, 3.65 µM; with HOP-62 NSCLC, 4.5 µM. Also, the TGI in the assay on SK-MEL-28 melanoma was found to be 3.67 µM; with HCT-15 colon, 19.4 µM; in the assay on SR leukemia, 4.82 µM; with KM12 colon, 5.14 µM; in the assay on SK-OV-3 ovarian, 20.7 µM; in the assay with SN12C renal, 3.9 µM. The TGI came out at 9.41 µM in the assay with A549 NSCLC, 3.16 µM in the assay on LOX IMVI melanoma, 16.6 µM with SNB-19 CNS and 21.8 µM in the assay on HOP-62 NSCLC.

(Values after PubChem BioAssay (NCI).)
